Patent US20190375778A1, “ADENOSINE DERIVATIVES FOR USE IN THE TREATMENT OF CANCER” (NuCana plc, priority 2016, published 2019)
Like-named read-outs stand apart in the source and are kept apart here.

Columns and labels:
[1] = system: human cervix carcinoma HeLa cells; assay: Cell proliferation (Coulter count) assay, HeLa; type: cell-based; conditions: 120 h, cell count on day 5, read-out: absolute IC50, HeLa
Method in brief: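 Cells grown in DMEM with 10% FBS. HeLa seeded at 10 000 cells/well, compound added after 24 h, counted day 5; L1210 and CEM seeded at 60 000 cells/well with compound, counted after 48 h and 72 h respectively. IC50 is concentration halving proliferation by Coulter count.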

[2] = system: CCRFCEM; assay: CellTiterGlo viability assay, CCRFCEM; type: cell-based; conditions: for IC50: read-out: IC50 CCRFCEM
Description: (§1) In vitro viability assay were performed to assess the effects of compounds on cell viability in selected cell lines over ˜72 hrs using the CellTiterGlo (CTG, Promega-G7573) assay. The tests were performed in duplicates with treatment of compounds at 9 points, 3.16 folds titration in 96 well plates over ˜72 hrs. The compound starting concentrations were 198 μM. Cell viability assay using CellTiterGlo in 96-well plate were performed. Compound treatment 72 hrs, standard growth conditions, duplicates. Compounds were dissolved to 40 mM with thawed […]. Compounds were serially diluted at 3.16 fold in thawed DMSO, and warmed to 37° C. before being dissolved in media (2 μl+200 μl). After compounds were dissolved in media, media containing compounds were warmed to 37° C. in incubator and then compounds in media were added to cell plates (50 μl+50 μl) in duplicates. The compounds' final concentrations were from […] to 19.9 nM. All compound solubilities were checked and recorded again, then the plates were transferred to CO2 tissue culture incubator immediately and incubated for 3 days. DMSO final concentration is 0.5%.

[3] = system: HS445; assay: CellTiterGlo viability assay, HS445; type: cell-based; conditions: for IC50: read-out: IC50 HS445
Description: as §1

[4] = system: THP-1; assay: CellTiterGlo viability assay, THP-1; type: cell-based; conditions: Homo sapiens, read-out: IC50 THP-1
Description: as §1

[5] = system: MiaPaCa-2; assay: CellTiterGlo viability assay, MiaPaCa-2; type: cell-based; conditions: for IC50: read-out: IC50 MiaPaCa-2
Description: as §1

[6] = system: SW620; assay: CellTiterGlo viability assay, SW620; type: cell-based; conditions: Homo sapiens, read-out: IC50 SW620
Description: as §1

[7] = system: HepG2; assay: CellTiterGlo viability assay, HepG2; type: cell-based; conditions: for IC50: read-out: IC50 HepG2
Description: as §1

[8] = system: HT29; assay: CellTiterGlo viability assay, HT29; type: cell-based; conditions: for IC50: read-out: IC50 HT29
Description: as §1

[9] = system: NCI-H929; assay: CellTiterGlo viability assay, NCI-H929; type: cell-based; conditions: Homo sapiens, read-out: IC50 NCI-H929
Description: as §1

[10] = system: RPMI-8226; assay: CellTiterGlo viability assay, RPMI-8226; type: cell-based, Human; conditions: for IC50: read-out: IC50 RPMI-8226
Description: as §1

[11] = system: MOLT-4; assay: CellTiterGlo viability assay, MOLT-4; type: cell-based; conditions: for IC50: read-out: IC50 MOLT-4
Description: as §1

[12] = system: Z138; assay: CellTiterGlo viability assay, Z138; type: cell-based; conditions: for IC50: read-out: IC50 Z138
Description: as §1

[13] = Homo sapiens, CCRF-CEM, CellTiterGlo, 72 hrs
[14] = Homo sapiens, MIA PaCa-2, CellTiterGlo, 72 hrs
[15] = Homo sapiens, HepG2, CellTiterGlo, 72 hrs
[16] = Homo sapiens, HT-29, CellTiterGlo, 72 hrs
[17] = Homo sapiens, RPMI-8226, CellTiterGlo, 72 hrs
[18] = Homo sapiens, MOLT-4, CellTiterGlo, 72 hrs
[19] = Homo sapiens, Z-138, CellTiterGlo, 72 hrs

C[C@H](NP(=O)(OC[C@H]1O[C@@H](n2c(Cl)nc3c(N)ncnc32)[C@H](O)[C@@H]1O)Oc1ccccc1)C(=O)OCc1ccccc1 (mixture of isomers) [C, (2S)-Benzyl 2-(((((2R,3S,4R,5R)-5-(6-amino-8-chloro-9H-purin-9-yl)-3,4-dihydroxy-tetrahydrofuran-2-yl)methoxy)(phenoxy)phosphoryl)amino)propanoate]
IC50 [1]: 5 to 15 µM | IC50 ([2]; Homo sapiens, CCRF-CEM, 72 h): 5 to 15 µM | IC50 ([3]; Hs 445, 72 h): > 100 µM | IC50 ([4]; THP-1, 72 h): 15 to 100 µM | IC50 ([5]; Homo sapiens, MIA PaCa-2, 72 h): 5 to 15 µM | IC50 ([6]; SW-620, 72 h): 15 to 100 µM | IC50 ([7]; Homo sapiens, HepG2, 72 h): 15 to 100 µM | IC50 ([8]; Homo sapiens, HT-29, 72 h): 5 to 15 µM | IC50 ([9]; NCI-H929, 72 h): 5 to 15 µM | IC50 ([10]; Homo sapiens, RPMI-8226, 72 h): 5 to 15 µM | IC50 ([11]; Homo sapiens, MOLT-4, 72 h): 0.1 to 5 µM | IC50 ([12]; Homo sapiens, Z-138, 72 h): 100 to 5000 nM

Nc1ncnc2c1nc(Cl)n2[C@@H]1O[C@H](COP(=O)(NCC(=O)OC2CCCCC2)Oc2ccccc2)[C@@H](O)[C@H]1O (mixture of isomers) [Compound A, Cyclohexyl 2-(((((2R,3S,4R,5R)-5-(6-amino-8-chloro-9H-purin-9-yl)-3,4-dihydroxy-tetrahydrofuran-2-yl)methoxy)(phenoxy)phosphoryl)amino)acetate]
IC50 [1]: 15 to 100 µM | IC50 ([2]; Homo sapiens, CCRF-CEM, 72 h): 5 to 15 µM | IC50 ([3]; Hs 445, 72 h): > 100 µM | IC50 ([4]; THP-1, 72 h): 15 to 100 µM | IC50 ([5]; Homo sapiens, MIA PaCa-2, 72 h): 5 to 15 µM | IC50 ([6]; SW-620, 72 h): 15 to 100 µM | IC50 ([7]; Homo sapiens, HepG2, 72 h): 5 to 15 µM | IC50 ([8]; Homo sapiens, HT-29, 72 h): 15 to 100 µM | IC50 ([9]; NCI-H929, 72 h): 15 to 100 µM | IC50 ([10]; Homo sapiens, RPMI-8226, 72 h): 5 to 15 µM | IC50 ([11]; Homo sapiens, MOLT-4, 72 h): 15 to 100 µM | IC50 ([12]; Homo sapiens, Z-138, 72 h): 100 to 5000 nM

Nc1ncnc2c1nc(Cl)n2[C@@H]1O[C@H](COP(=O)(NCC(=O)OCc2ccccc2)Oc2ccccc2)[C@@H](O)[C@H]1O (mixture of isomers) [Compound B, Benzyl 2-(((((2R,3S,4R,5R)-5-(6-amino-8-chloro-9H-purin-9-yl)-3,4-dihydroxytetra-hydrofuran-2-yl)methoxy)(phenoxy)phosphoryl)amino)acetate]
IC50 [1]: 0.1 to 5 µM | IC50 ([2]; Homo sapiens, CCRF-CEM, 72 h): 0.1 to 5 µM | IC50 ([3]; Hs 445, 72 h): 5 to 15 µM | IC50 ([4]; THP-1, 72 h): 0.1 to 5 µM | IC50 ([5]; Homo sapiens, MIA PaCa-2, 72 h): 0.1 to 5 µM | IC50 ([6]; SW-620, 72 h): 0.1 to 5 µM | IC50 ([7]; Homo sapiens, HepG2, 72 h): 0.1 to 5 µM | IC50 ([8]; Homo sapiens, HT-29, 72 h): 0.1 to 5 µM | IC50 ([9]; NCI-H929, 72 h): 5 to 15 µM | IC50 ([10]; Homo sapiens, RPMI-8226, 72 h): 0.1 to 5 µM | IC50 ([11]; Homo sapiens, MOLT-4, 72 h): 0.1 to 5 µM | IC50 ([12]; Homo sapiens, Z-138, 72 h): 100 to 5000 nM

Nc1ncnc2c1nc(Cl)n2[C@@H]1O[C@H](CO)[C@@H](O)[C@H]1O [8-chloroadenosine, 8-Chloroadenosine, reference compound]
IC50 [1]: 0.1 to 5 µM | Top in. % CCRF-CEM [2]: 82.3% | IC50 [2, 13]: 0.1 to 5 µM | EC50 ([2]; Homo sapiens, CCRF-CEM, read-out: Ab EC50 (μM) CCRF-CEM): 2.27 µM | Top in. % HS445 [3]: 78.1% | IC50 ([3]; Hs 445, CellTiterGlo, 72 hrs): 5 to 15 µM | EC50 ([3]; Hs 445, read-out: Ab EC50 (μM) HS445): 4.5 µM | IC50 ([4]; THP-1, CellTiterGlo, 72 hrs): 0.1 to 5 µM | Top in. % MiaPa-Ca-2 [5]: 86.2% | IC50 [5, 14]: 0.1 to 5 µM | EC50 ([5]; Homo sapiens, MIA PaCa-2, read-out: Ab EC50 (μM) MiaPa-Ca-2): 0.44 µM | IC50 ([6]; SW-620, CellTiterGlo, 72 hrs): 0.1 to 5 µM | Top in. % HepG2 [7]: 78.5% | IC50 [7, 15]: 0.1 to 5 µM | EC50 ([7]; Homo sapiens, HepG2, read-out: Ab EC50 (μM) HepG2): 1.13 µM | Top in. % HT29 [8]: 80.2% | IC50 [8, 16]: 0.1 to 5 µM | EC50 ([8]; Homo sapiens, HT-29, read-out: Ab EC50 (μM) HT29): 1.35 µM | IC50 ([9]; NCI-H929, CellTiterGlo, 72 hrs): 0.1 to 5 µM | Top in. % RPMI-8226 [10]: 96.2% | IC50 [10, 17]: 0.1 to 5 µM | EC50 ([10]; Homo sapiens, RPMI-8226, read-out: Ab EC50 (μM) RPMI-8226): 1.34 µM | Top in. % MOLT-4 [11]: 76.0% | IC50 [11, 18]: 0.1 to 5 µM | EC50 ([11]; Homo sapiens, MOLT-4, read-out: Ab EC50 (μM) MOLT-4): 3.27 µM | Top in. % Z-138 [12]: 88.7% | IC50 [12, 19]: 100 to 5000 nM | EC50 ([12]; Homo sapiens, Z-138, read-out: Ab EC50 (μM) Z-138): 1.44 µM

Nc1ncnc2c1nc(Cl)n2[C@@H]1O[C@H](COP(=O)(NCC(=O)OCc2ccccc2)NCC(=O)OCc2ccccc2)C(O)C1O (stereo partly shown) [Compound AC, 8-Chloroadenosine 5′-O-bis(benzyloxy-glycin-N-yl) phosphate]
IC50 [1]: 0.1 to 5 µM | IC50 [2, 13]: 0.1 to 5 µM | IC50 ([3]; Hs 445, CellTiterGlo, 72 hrs): 5 to 15 µM | IC50 ([4]; THP-1, CellTiterGlo, 72 hrs): 0.1 to 5 µM | IC50 [5, 14]: 0.1 to 5 µM | IC50 ([6]; SW-620, CellTiterGlo, 72 hrs): 0.1 to 5 µM | IC50 [7, 15]: 0.1 to 5 µM | IC50 [8, 16]: 0.1 to 5 µM | IC50 ([9]; NCI-H929, CellTiterGlo, 72 hrs): 0.1 to 5 µM | IC50 [10, 17]: 0.1 to 5 µM | IC50 [11, 18]: 0.1 to 5 µM | IC50 [12, 19]: 100 to 5000 nM

C[C@H](NP(=O)(OC[C@H]1O[C@@H](n2c(Cl)nc3c(N)ncnc32)C(O)C1O)Oc1cccc2ccccc12)C(=O)OCc1ccccc1 (stereo partly drawn) [Compound D, (2S)-Benzyl 2-(((((2R,3S,4R,5R)-5-(6-amino-8-chloro-9H-purin-9-yl)-3,4-dihydroxy-tetrahydrofuran-2-yl)methoxynaphthalene-1-yloxy)phosphoryl)amino)propanoate]
IC50 [1]: 0.1 to 5 µM | IC50 ([2]; Homo sapiens, CCRF-CEM, 72 h): 0.1 to 5 µM | IC50 ([3]; Hs 445, 72 h): 5 to 15 µM | IC50 ([4]; THP-1, 72 h): 0.1 to 5 µM | IC50 ([5]; Homo sapiens, MIA PaCa-2, 72 h): 0.1 to 5 µM | IC50 ([6]; SW-620, 72 h): 0.1 to 5 µM | IC50 ([7]; Homo sapiens, HepG2, 72 h): 0.1 to 5 µM | IC50 ([8]; Homo sapiens, HT-29, 72 h): 0.1 to 5 µM | IC50 ([9]; NCI-H929, 72 h): 0.1 to 5 µM | IC50 ([10]; Homo sapiens, RPMI-8226, 72 h): 0.1 to 5 µM | IC50 ([11]; Homo sapiens, MOLT-4, 72 h): 0.1 to 5 µM | IC50 ([12]; Homo sapiens, Z-138, 72 h): 100 to 5000 nM

CCCCCOC(=O)[C@H](C)NP(=O)(OC[C@H]1O[C@@H](n2c(Cl)nc3c(N)ncnc32)C(O)C1O)Oc1cccc2ccccc12 (stereo partly drawn) [Compound E, (2S)-Pentyl 2-(((((2R,3S,4R,5R)-5-(6-amino-8-chloro-9H-purin-9-yl)-3,4-dihydroxy-tetrahydrofuran-2-yl)methoxnaphthalene-1-yloxy)phosphoryl)amino)propanoate]
IC50 [1]: 0.1 to 5 µM | IC50 ([2]; Homo sapiens, CCRF-CEM, 72 h): 0.1 to 5 µM | IC50 ([3]; Hs 445, 72 h): 15 to 100 µM | IC50 ([4]; THP-1, 72 h): 0.1 to 5 µM | IC50 ([5]; Homo sapiens, MIA PaCa-2, 72 h): 0.1 to 5 µM | IC50 ([6]; SW-620, 72 h): 0.1 to 5 µM | IC50 ([7]; Homo sapiens, HepG2, 72 h): 0.1 to 5 µM | IC50 ([8]; Homo sapiens, HT-29, 72 h): 0.1 to 5 µM | IC50 ([9]; NCI-H929, 72 h): 0.1 to 5 µM | IC50 ([10]; Homo sapiens, RPMI-8226, 72 h): 0.1 to 5 µM | IC50 ([11]; Homo sapiens, MOLT-4, 72 h): 0.1 to 5 µM | IC50 ([12]; Homo sapiens, Z-138, 72 h): 100 to 5000 nM
